# Measured values: patent EP2108954A1, “A test system for detecting intracellular cyclic nucleotide level and methods and uses thereof” (Max-Planck-Gesellschaft zur Förderung der Wissenschaften …, priority 2008, dated 2009)
# What was measured:
# [1] = system: hCNGA2; assay: Calcium imaging (fura-2) in HEK293 cells expressing hCNGA2 and Or22a; format: cell-based, human; conditions: most prominent near the plasma membrane (Fig. 5d)
# Method: Free intracellular Ca^2+ concentration ([Ca^2+]i) was determined by fura-2 fluorescence as described (Messutat et al., Cell Calcium 30, 199-211. (2001)). In brief, cells were loaded with fura-2 by incubation in bath solution containing 2 µM fura-2/acetomethylester for 20 min. Free intracellular Ca^2+ concentration ([Ca^2+]i) was determined with the fluorescence ratio method. Excitation of fura-2 at 340 and 380 nm was performed with a monochromator (Polychrome II, T.I.L.L. Photonics, Gräfelfing, Germany) coupled via an epifluorescence condenser into an Axioskop FS microscope (Carl Zeiss, Jena, Germany) with a water immersion objective (LUMPFL 40xW/IR/0.8; Olympus, Hamburg, Germany). […] [Ca^2+]i was calculated according to the equation [Ca^(2 +)]i = Keff (R-Rmin)/(Rmax-R). […] Keff, Rmin, and Rmax were determined using HEK293 cells permeabilized with 2 µM ionomycin and three solutions with different concentrations of free Ca^2+ (Ca^2+ free; 5 mM Ca^2+; 500 nM Ca^2+; the composition of the 500 nM solution was calculated with WEBMAXC v.2.20) (Patton et al., Cell Calcium 35, 427-31 (2004)). […]
# Fluorescence images were acquired using a cooled CCD camera controlled by TILLVision 4.0 software (T.I.L.L. Photonics). […] Image pairs were obtained by excitation for 100 ms at 340 nm and 380 nm; background fluorescence was subtracted.
# [2] = biological target: T1, Or83b (Drosophila melanogaster, UniProt Q9VNB5); assay: Whole-cell patch-clamp of HEK293 cells expressing Or83b alone; format: cell-based; parameters: expressed in transfected cells; host or cells: HEK293; conditions: HEK293 cells transfected with Or83b alone; whole-cell, -60 mV; n = 6
# T1 sequence (Q9VNB5 1-486): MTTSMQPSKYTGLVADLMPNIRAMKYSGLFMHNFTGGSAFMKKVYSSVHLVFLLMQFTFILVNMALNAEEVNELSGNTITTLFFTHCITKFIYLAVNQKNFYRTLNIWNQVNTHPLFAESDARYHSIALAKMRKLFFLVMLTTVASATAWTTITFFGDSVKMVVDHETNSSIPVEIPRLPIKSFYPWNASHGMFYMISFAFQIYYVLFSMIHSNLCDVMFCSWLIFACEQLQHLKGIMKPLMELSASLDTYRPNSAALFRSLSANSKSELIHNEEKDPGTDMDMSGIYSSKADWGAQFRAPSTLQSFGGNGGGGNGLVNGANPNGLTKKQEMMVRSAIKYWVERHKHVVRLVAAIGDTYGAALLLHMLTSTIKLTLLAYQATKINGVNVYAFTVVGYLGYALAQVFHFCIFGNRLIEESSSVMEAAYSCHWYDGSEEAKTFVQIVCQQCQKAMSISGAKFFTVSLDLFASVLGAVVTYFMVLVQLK
# Method: In some experiments we transfected cells with pcDNA3-DOR22a-GFP or pcDNA3-DOR83b-GFP alone. We also examined the properties of DOR47a, which was cloned, using standard molecular biology methods into a pcDNA3.1(-) expression vector. To test for putative G-protein coupling, cells were transfected with the respective OR-DNA together with 1.5 µg hHCN2/pcDNA3 (provided by M. Biel, Munich, Germany), with 1 µg hKCNQ4/pcDNA3.1 or with 1 µg hCNGA2/pCMV6-XL4 (Origene, Rockville, MD, USA).
# In brief, ion currents in HEK293 cells were measured at room temperature using whole-cell patch-clamp with appropriate compensation of series resistance and of capacitive currents. Additional experiments were performed in the outside-out configuration. Current measurements and data acquisition were performed using an EPC9 patch-clamp amplifier controlled by PatchMaster software (both HEKA Elektronik, Lambrecht, Germany). Patch-clamp pipettes were fabricated from borosilicate capillaries. Pipettes for whole-cell recordings had resistances of 2-4 MΩ for excised-patch recordings the pipette resistance was up to 15 MΩ.
# To differentiate between ionotropic and metabotropic pathways of receptor activation (Fig. 2a-d) the pipette solution contained either 2 mM ATP plus 2 mM GTP or 2 mM ADP plus 2 mM GDP (both for whole-cell and outside-out configuration). For the preparation of Cl^--free solutions the chloride salts were substituted by gluconate salts. The pipette Cs^+ solution contained (in mM) 140 CsCl, 1 Mg-ATP, 10 EGTA, 10 HEPES (pH = 7.3), and the Cs^+ bath solution contained (in mM) 140 CsCl, 15 glucose, 15 HEPES (pH = 7.4). The Ca^2+-free bath solution contained (in mM) 140 NaCl, 15 glucose, 15 HEPES, and the Na^+-free bath solution contained (in mM) 140 NMDG-Cl, 10 CaCl2, 10 glucose, 15 HEPES.
# With the exception of GDP-γ-S, which was applied via the patch pipette, all substances were applied to the bath using either a bath perfusion system (BPS4 from ALA, New York, USA) or a rapid solution changer (RSC160 from Biologic, Claix, France) which were controlled by the PatchMaster software (HEKA Elektronik).
smiles,measurement,setting,value
"CCCC(=O)OCC [Etb, ethyl butyrate]",[Ca^2+]i,[1],produced an increase in [Ca^2+]i
same,inward current upon short Etb application,[2],no current was observed
